Laboratory results published in the NIST ThermoML archive (doi:10.1016/j.jct.2017.03.032).

Assay: wn = mass fraction of the nth substance listed
Conditions: Gas, Burnett expansion method

F/C=C/C(F)(F)F [trans-1,3,3,3-tetrafluoropropene] + CC(C)C
Conditions	mass density [kg/m3]
280.17 K, 167.4 kPa, w1 = 0.7	6.7132
280.17 K, 218.3 kPa, w1 = 0.7	8.9087
280.18 K, 165.3 kPa, w1 = 0.65	6.4038
280.18 K, 215.5 kPa, w1 = 0.65	8.4982
280.18 K, 229.9 kPa, w1 = 0.8	10.1496
285.05 K, 159.8 kPa, w1 = 0.8	6.7596
285.06 K, 208.9 kPa, w1 = 0.8	8.9702
285.06 K, 266.4 kPa, w1 = 0.75	11.209
285.06 K, 272 kPa, w1 = 0.8	11.904
285.06 K, 290 kPa, w1 = 0.9	13.8805
285.08 K, 149.5 kPa, w1 = 0.65	5.6292
285.08 K, 195.5 kPa, w1 = 0.65	7.4702
285.08 K, 254.6 kPa, w1 = 0.65	9.9134
285.09 K, 151.9 kPa, w1 = 0.7	5.9363
285.09 K, 198.7 kPa, w1 = 0.7	7.8779
285.09 K, 258.7 kPa, w1 = 0.7	10.4543
290.16 K, 140.3 kPa, w1 = 0.75	5.5569
290.16 K, 183.7 kPa, w1 = 0.75	7.3743
290.16 K, 234.4 kPa, w1 = 0.7	9.1876
290.16 K, 239.9 kPa, w1 = 0.75	9.7861
290.17 K, 153.8 kPa, w1 = 0.9	6.9178
290.17 K, 201.4 kPa, w1 = 0.9	9.1804
290.17 K, 262.6 kPa, w1 = 0.9	12.1828
290.17 K, 304.8 kPa, w1 = 0.7	12.1924
290.17 K, 311.8 kPa, w1 = 0.75	12.9866
290.17 K, 340.7 kPa, w1 = 0.9	16.1673
290.18 K, 176 kPa, w1 = 0.65	6.5292
290.18 K, 179.5 kPa, w1 = 0.7	6.9229
290.18 K, 229.9 kPa, w1 = 0.65	8.6646
290.18 K, 299.2 kPa, w1 = 0.65	11.4985
290.19 K, 148.1 kPa, w1 = 0.85	6.3743
290.19 K, 193.9 kPa, w1 = 0.85	8.459
290.19 K, 252.9 kPa, w1 = 0.85	11.2256
290.19 K, 328.4 kPa, w1 = 0.85	14.8972
290.2 K, 188.8 kPa, w1 = 0.8	7.8842
290.2 K, 246.5 kPa, w1 = 0.8	10.4628
290.2 K, 320.1 kPa, w1 = 0.8	13.8847
295.18 K, 138.3 kPa, w1 = 0.9	6.0742
295.18 K, 181.5 kPa, w1 = 0.9	8.0608
295.18 K, 198.3 kPa, w1 = 0.65	7.2638
295.18 K, 258.7 kPa, w1 = 0.65	9.6394
295.18 K, 308.8 kPa, w1 = 0.9	14.1958
295.18 K, 336.3 kPa, w1 = 0.65	12.7921
295.18 K, 399.6 kPa, w1 = 0.9	18.8389
295.19 K, 151.4 kPa, w1 = 0.65	5.4735
295.19 K, 237.2 kPa, w1 = 0.9	10.6968
295.2 K, 160.8 kPa, w1 = 0.7	6.0421
295.2 K, 173.7 kPa, w1 = 0.85	7.366
295.2 K, 210.4 kPa, w1 = 0.7	8.0182
295.2 K, 227.4 kPa, w1 = 0.85	9.7751
295.2 K, 274.6 kPa, w1 = 0.7	10.6407
295.2 K, 296.4 kPa, w1 = 0.85	12.9722
295.2 K, 356.2 kPa, w1 = 0.7	14.1209
295.2 K, 384.1 kPa, w1 = 0.85	17.2147
295.21 K, 165.5 kPa, w1 = 0.75	6.4713
295.21 K, 216.7 kPa, w1 = 0.75	8.5879
295.21 K, 282.6 kPa, w1 = 0.75	11.3966
295.21 K, 366.4 kPa, w1 = 0.75	15.1241
295.22 K, 169.2 kPa, w1 = 0.8	6.8878
295.22 K, 221.5 kPa, w1 = 0.8	9.1405
295.22 K, 288.6 kPa, w1 = 0.8	12.13
295.22 K, 374 kPa, w1 = 0.8	16.0973
300.14 K, 198.5 kPa, w1 = 0.8	7.9893
300.14 K, 259.5 kPa, w1 = 0.8	10.6023
300.14 K, 337.5 kPa, w1 = 0.8	14.0697
300.16 K, 151.4 kPa, w1 = 0.8	6.02
300.16 K, 156.6 kPa, w1 = 0.85	6.5188
300.16 K, 205.4 kPa, w1 = 0.85	8.6508
300.16 K, 268.4 kPa, w1 = 0.85	11.4801
300.16 K, 348.9 kPa, w1 = 0.85	15.2347
300.16 K, 448.5 kPa, w1 = 0.85	20.2174
300.17 K, 466.4 kPa, w1 = 0.9	21.9125
300.18 K, 162.8 kPa, w1 = 0.9	7.0652
300.18 K, 213.3 kPa, w1 = 0.9	9.3759
300.18 K, 278.5 kPa, w1 = 0.9	12.4424
300.18 K, 361.8 kPa, w1 = 0.9	16.5116
300.19 K, 141.1 kPa, w1 = 0.65	4.9939
300.19 K, 147.4 kPa, w1 = 0.75	5.6247
300.19 K, 185.2 kPa, w1 = 0.65	6.6273
300.19 K, 193.2 kPa, w1 = 0.75	7.4643
300.19 K, 242.2 kPa, w1 = 0.65	8.7948
300.19 K, 252.7 kPa, w1 = 0.75	9.9055
300.19 K, 315.5 kPa, w1 = 0.65	11.6712
300.19 K, 328.9 kPa, w1 = 0.75	13.1452
300.19 K, 408.2 kPa, w1 = 0.65	15.4884
300.19 K, 425.4 kPa, w1 = 0.75	17.4445
300.21 K, 143.9 kPa, w1 = 0.7	5.2837
300.21 K, 188.7 kPa, w1 = 0.7	7.0118
300.21 K, 246.8 kPa, w1 = 0.7	9.3051
300.21 K, 321.3 kPa, w1 = 0.7	12.3484
300.21 K, 415.8 kPa, w1 = 0.7	16.3872
305.17 K, 185.5 kPa, w1 = 0.8	7.2959
305.17 K, 243 kPa, w1 = 0.8	9.6822
305.17 K, 316.9 kPa, w1 = 0.8	12.8488
305.17 K, 410.9 kPa, w1 = 0.8	17.0511
305.18 K, 145.2 kPa, w1 = 0.85	5.912
305.18 K, 169.9 kPa, w1 = 0.7	6.1677
305.18 K, 189.6 kPa, w1 = 0.85	7.8456
305.18 K, 249.6 kPa, w1 = 0.85	10.4115
305.18 K, 290.8 kPa, w1 = 0.7	10.8618
305.18 K, 325.5 kPa, w1 = 0.85	13.8167
305.18 K, 377.9 kPa, w1 = 0.7	14.4143
305.18 K, 420.8 kPa, w1 = 0.85	18.3356
305.18 K, 536.7 kPa, w1 = 0.85	24.3325
305.19 K, 181.1 kPa, w1 = 0.75	6.8373
305.19 K, 222.7 kPa, w1 = 0.7	8.1848
305.19 K, 237.2 kPa, w1 = 0.75	9.0735
305.19 K, 401.5 kPa, w1 = 0.75	15.9791
305.19 K, 487 kPa, w1 = 0.7	19.1285
305.2 K, 162.4 kPa, w1 = 0.65	5.6789
305.2 K, 212.9 kPa, w1 = 0.65	7.5363
305.2 K, 278.3 kPa, w1 = 0.65	10.001
305.2 K, 309.5 kPa, w1 = 0.75	12.0406
305.2 K, 361.8 kPa, w1 = 0.65	13.2721
305.2 K, 465.9 kPa, w1 = 0.65	17.6129
305.21 K, 150 kPa, w1 = 0.9	6.375
305.21 K, 196.9 kPa, w1 = 0.9	8.4599
305.21 K, 257.6 kPa, w1 = 0.9	11.2269
305.21 K, 335.6 kPa, w1 = 0.9	14.8987
305.21 K, 434.3 kPa, w1 = 0.9	19.7715
305.21 K, 557 kPa, w1 = 0.9	26.2379
310.09 K, 153.4 kPa, w1 = 0.7	5.4721
310.09 K, 569.4 kPa, w1 = 0.7	22.5217
310.1 K, 157.4 kPa, w1 = 0.8	6.0902
310.1 K, 201.9 kPa, w1 = 0.7	7.2614
310.1 K, 207.9 kPa, w1 = 0.8	8.082
310.1 K, 271.8 kPa, w1 = 0.75	10.3201
310.1 K, 272 kPa, w1 = 0.8	10.7254
310.1 K, 344.7 kPa, w1 = 0.7	12.7882
310.1 K, 354.2 kPa, w1 = 0.75	13.6955
310.1 K, 354.6 kPa, w1 = 0.8	14.233
310.1 K, 458.2 kPa, w1 = 0.8	18.8881
310.1 K, 459.6 kPa, w1 = 0.75	18.1746
310.1 K, 583 kPa, w1 = 0.75	24.1187
310.1 K, 583.3 kPa, w1 = 0.8	25.0653
310.11 K, 158.1 kPa, w1 = 0.75	5.86
310.11 K, 207.6 kPa, w1 = 0.75	7.7765
310.11 K, 446.6 kPa, w1 = 0.7	16.9702
310.12 K, 264.5 kPa, w1 = 0.7	9.6359
310.12 K, 493.5 kPa, w1 = 0.9	22.3926
310.13 K, 166 kPa, w1 = 0.85	6.6824
310.13 K, 172 kPa, w1 = 0.9	7.22
310.13 K, 225.6 kPa, w1 = 0.9	9.5815
310.13 K, 294.9 kPa, w1 = 0.9	12.7151
310.13 K, 337.1 kPa, w1 = 0.65	12.0235
310.13 K, 372.9 kPa, w1 = 0.85	15.6171
310.13 K, 383.7 kPa, w1 = 0.9	16.8736
310.13 K, 436.3 kPa, w1 = 0.65	15.9559
310.13 K, 556 kPa, w1 = 0.65	21.1744
310.13 K, 607.5 kPa, w1 = 0.85	27.5031
310.14 K, 196.8 kPa, w1 = 0.65	6.8271
310.14 K, 216.8 kPa, w1 = 0.85	8.8678
310.14 K, 258.2 kPa, w1 = 0.65	9.0598
310.14 K, 285 kPa, w1 = 0.85	11.7678
310.14 K, 479.8 kPa, w1 = 0.85	20.7246
310.15 K, 149.8 kPa, w1 = 0.65	5.1443
